Laboratory results: patent publication US10258614B2, “Compositions and methods for treating schizophrenia” (priority 2014, dated 2019)
pIC50, pKi: −log10 of the molar value. Values joined by “and” are separate entries in the source; they are usually repeats but may differ in a detail not shown here. Equal entries are not always repeated. Structures can show the parent of a compound that is named as a salt. Where two headings read alike, the source gives them in different places.

Experiments:
[1] = molecular target: sigma2 receptors (Homo sapiens, UniProt Q5BJF2); assay: In vitro receptor binding studies
Chain of sigma2 receptors (Homo sapiens, UniProt Q5BJF2) (Q5BJF2 whole entry): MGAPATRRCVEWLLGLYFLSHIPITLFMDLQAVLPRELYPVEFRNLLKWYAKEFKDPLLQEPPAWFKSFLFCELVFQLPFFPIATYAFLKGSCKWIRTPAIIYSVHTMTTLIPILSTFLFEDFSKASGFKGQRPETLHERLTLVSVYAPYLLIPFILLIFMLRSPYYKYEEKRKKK

[2] = test system: methamphetamine-induced hyperlocomotion; assay: Methamphetamine-induced hyperlocomotion; format: in vivo, male Wistar rats; settings: for methamphetamine-induced hyperlocomotion: male Wistar rats
Method: (§1) Compound (I) was tested in male Wistar rats in several behavioral paradigms designed to evaluate the potential for producing antipsychotic activity of drugs in humans. Compound (I) inhibited methamphetamine-, apomorphine-, and phencyclidine-induced hyperlocomotion in a similar manner to other antipsychotics.

[3] = in vivo; set-up: species or system monkeys; settings: monkey
Method: (§2) Pharmacokinetic (PK) studies of Compound (I) have been performed particularly in rats and monkeys. Following a single oral administration, Compound (I) was rapidly absorbed. Plasma radioactivity peaked between 0.63 and 2.75 hours in male rats, and between 3 and 3.5 hours in male monkeys. […] The elimination half-lives of radioactivity from plasma were 45.13 to 51.52 hours in rats and 174.74 to 184.78 hours in monkeys. The elimination half-lives of unchanged Compound (I) were 1.68 to 2.06 hours in rats, and 1.68 to 2.57 hours in monkeys.
(§3) After single administration of BFB-520 in monkeys, exposure levels of BFB-520, Compound (I) and BFB-999 increased with a dose increment larger than the proportionate one. […] Finally, the brain transfer of Compound (I) was studied with male rats after oral administration (10 mg/kg). […] The Kp value (brain/plasma concentration ratio) was 1.38 mL/g.
(§4) The major route of elimination of radioactivity in rats and monkeys following a single oral or intravenous administration was via the feces. The excretion to bile was 44.2% within 48 hours after a single oral administration to bile duct cannulated rats. Urinary excretion rates of radioactivity were about 35% in rats and monkeys. […] The enterohepatic circulation rate was determined to be about 27% after intraduodenal administration of bile samples from ^14C-Compound (I)-treated rats.

[4] = test system: QT/QTc interval; assay: Analysis of relationship between QT/QTc and plasma concentrations; format: in vivo, human
Method: Increases in QTc interval were observed and seemed to be related to the exposure to Compound (I) and its metabolite BFB-520. […] A further analysis of the relationship between QT/QTc and Compound (I) and BFB-520 concentrations was performed.

[5] = molecular target: IKr current (Homo sapiens, UniProt Q12809); assay: In vitro electrophysiology, cultured cells expressing cloned cardiac ion channels
Chain of IKr current (Q12809 whole entry): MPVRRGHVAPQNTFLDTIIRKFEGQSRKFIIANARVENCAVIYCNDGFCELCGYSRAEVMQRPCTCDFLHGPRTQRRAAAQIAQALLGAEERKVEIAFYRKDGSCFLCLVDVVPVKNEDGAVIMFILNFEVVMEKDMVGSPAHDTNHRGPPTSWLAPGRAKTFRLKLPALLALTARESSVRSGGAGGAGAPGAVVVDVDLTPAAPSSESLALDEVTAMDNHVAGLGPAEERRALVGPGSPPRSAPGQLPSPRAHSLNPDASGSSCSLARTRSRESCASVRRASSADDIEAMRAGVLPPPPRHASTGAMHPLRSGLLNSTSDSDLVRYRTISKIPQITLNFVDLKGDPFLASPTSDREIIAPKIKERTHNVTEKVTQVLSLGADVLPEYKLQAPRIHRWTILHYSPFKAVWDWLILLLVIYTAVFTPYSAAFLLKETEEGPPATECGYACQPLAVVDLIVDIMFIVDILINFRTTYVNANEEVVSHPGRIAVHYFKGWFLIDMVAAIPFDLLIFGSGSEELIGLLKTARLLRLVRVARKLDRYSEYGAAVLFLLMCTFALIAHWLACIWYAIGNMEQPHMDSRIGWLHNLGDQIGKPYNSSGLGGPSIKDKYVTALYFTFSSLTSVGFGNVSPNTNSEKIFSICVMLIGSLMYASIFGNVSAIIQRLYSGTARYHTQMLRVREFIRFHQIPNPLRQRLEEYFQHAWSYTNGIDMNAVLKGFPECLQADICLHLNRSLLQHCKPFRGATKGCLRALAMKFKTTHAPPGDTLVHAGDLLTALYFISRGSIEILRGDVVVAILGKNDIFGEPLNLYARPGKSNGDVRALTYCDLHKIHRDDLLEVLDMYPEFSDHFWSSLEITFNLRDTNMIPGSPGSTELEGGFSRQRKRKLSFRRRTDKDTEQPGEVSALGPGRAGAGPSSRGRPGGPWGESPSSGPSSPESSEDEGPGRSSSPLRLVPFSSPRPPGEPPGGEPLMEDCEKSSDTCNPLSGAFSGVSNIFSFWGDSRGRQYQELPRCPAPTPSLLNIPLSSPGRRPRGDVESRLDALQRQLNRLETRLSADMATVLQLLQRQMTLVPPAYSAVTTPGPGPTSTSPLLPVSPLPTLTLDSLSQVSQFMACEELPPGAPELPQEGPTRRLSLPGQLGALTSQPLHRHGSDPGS
Description: (§5) The effects of Compound (I) on the cardiovascular system were examined in in vitro and in vivo studies.

[6] = molecular target: 5-HT2A receptors (Homo sapiens, UniProt P28223); assay: In vitro receptor binding studies
Chain of 5-HT2A receptors (Homo sapiens, UniProt P28223) (P28223 whole entry): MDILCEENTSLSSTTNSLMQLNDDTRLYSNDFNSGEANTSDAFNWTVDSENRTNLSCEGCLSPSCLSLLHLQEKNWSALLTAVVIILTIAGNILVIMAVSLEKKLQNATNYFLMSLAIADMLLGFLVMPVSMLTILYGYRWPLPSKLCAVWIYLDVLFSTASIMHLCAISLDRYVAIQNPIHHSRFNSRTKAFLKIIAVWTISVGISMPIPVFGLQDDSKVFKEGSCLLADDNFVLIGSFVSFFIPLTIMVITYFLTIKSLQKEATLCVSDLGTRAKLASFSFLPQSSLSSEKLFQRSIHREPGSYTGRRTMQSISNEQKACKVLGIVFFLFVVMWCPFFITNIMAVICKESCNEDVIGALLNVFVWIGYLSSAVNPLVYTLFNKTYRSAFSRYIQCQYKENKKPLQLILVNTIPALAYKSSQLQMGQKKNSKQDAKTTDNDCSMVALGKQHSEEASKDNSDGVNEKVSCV

[7] = test system: human liver microsomes, cytochromes P450
[8] = Part 1 single dose MR formulation pharmacokinetic study in healthy CYP2D6 EM male subjects; format: in vivo, human; set-up: Cmax increase, food effect: unit not given beside the values; settings: for AUC(0-t) / Cmax / half-life: plasma
Description: Part 1 of this study was designed to characterize and compare the pharmacokinetic (PK) profile of Compound (I) when administered as MR formulations, and food effects, following a single dose administration in a 6-way, within subject, crossover design.
Part 1 of the study is an open-label, non-randomized, single dose, 6-period crossover design in 12 healthy CYP 2D6 EM male subjects. For Part 1, subjects will receive the following regimens in a non-randomised manner:
Regimen A: MR Formulation prototype 1: 32 mg Compound (I) slow release administered in the fasted state
A Two-Part Study Designed to Evaluate the Pharmacokinetic Profile of Compound (I) and its Main Metabolites Following Single and Multiple Dose Modified Release Prototype Formulation Administration in Healthy CYP2D6 Extensive Metabolizer Male and Female Subjects, and to Evaluate the Relationship Between the Pharmacokinetic Profile of Compound (I) and its Main Metabolites and Cardiovascular Parameters.

[9] = test system: guinea pig papillary muscle
Description: as §5

[10] = in vivo; set-up: species or system male rats; settings: rat, po, 10 mg/kg
Method: as §3

[11] = test system: sleep architecture; assay: CYR-101C01 Phase 2a study, sleep recordings (PSG) and PSQI; format: in vivo, human
[12] = test system: apomorphine-induced hyperlocomotion; assay: Apomorphine-induced hyperlocomotion; format: in vivo; settings: male Wistar rats
Method: as §1

[13] = test system: PCP-induced social interaction impairment; assay: PCP-induced social interaction impairment; format: in vivo, male Wistar rats; settings: after repeated administration
[14] = test system: spontaneous alternation behavior impairment induced by MK-801; assay: Impairment of spontaneous alternation behavior induced by MK-801; set-up: species or system male Wistar rats; settings: rat, in vivo
[15] = test system: rats; assay: Safety pharmacology studies (general activity and behavior, CNS, respiratory, gastrointestinal, water and electrolyte excretion); format: in vivo
Method: In a series of safety pharmacology studies, the effects of Compound (I) on general activity and behavior, the CNS, respiratory function, gastrointestinal system, and water and electrolyte excretion were examined in rats at an oral dose range of 1 to 30 mg/kg Compound (I) induced various changes in general activity and behavior. These clinical signs were observed between 0.25 to 4 hours post-dosing and disappeared by 6 hours post-dosing. Compound (I) inhibited CNS function and decreased thresholds for electroshock-induced convulsion.

[16] = molecular target: CYP2D6 (Homo sapiens, UniProt P10635); assay: Inhibition of human P450 isoforms; format: in vitro ADME
Chain of CYP2D6 (P10635 whole entry, canonical isoform): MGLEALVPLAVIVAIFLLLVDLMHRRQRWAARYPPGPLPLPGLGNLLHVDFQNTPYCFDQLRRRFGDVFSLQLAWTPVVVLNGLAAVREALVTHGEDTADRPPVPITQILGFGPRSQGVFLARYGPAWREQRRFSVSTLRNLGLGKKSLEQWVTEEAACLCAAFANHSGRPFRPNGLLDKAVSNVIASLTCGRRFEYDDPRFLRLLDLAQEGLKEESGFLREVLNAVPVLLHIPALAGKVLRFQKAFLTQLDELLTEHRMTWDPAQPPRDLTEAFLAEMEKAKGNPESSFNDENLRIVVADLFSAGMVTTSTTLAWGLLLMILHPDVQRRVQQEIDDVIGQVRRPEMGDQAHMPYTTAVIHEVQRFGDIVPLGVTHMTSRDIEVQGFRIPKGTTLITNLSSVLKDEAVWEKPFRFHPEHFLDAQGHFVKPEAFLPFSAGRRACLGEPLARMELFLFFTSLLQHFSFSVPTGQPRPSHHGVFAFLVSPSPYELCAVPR

[17] = test system: sigma2 receptors; assay: In vivo functional tests
Description: (§6) In in vivo functional tests, Compound (I) acted as an antagonist at sigma2 and 5-HT2A receptors.

[18] = test system: 5-HT2A receptors; assay: In vivo functional tests
Description: as §6

[19] = test system: dopamine turnover, DA metabolites DOPAC and HVA; assay: Dopamine turnover and DA metabolite output after oral administration; format: in vivo
Description: as §6

[20] = test system: phencyclidine-induced hyperlocomotion; assay: Phencyclidine-induced hyperlocomotion; format: in vivo; settings: male Wistar rats
Method: as §1

[21] = in vivo; set-up: species or system rats; settings: rat
Method: as §2
Food and gender effects were also assessed in rats.
as §4

[22] = test system: human P450 isoforms (CYP1A2, 2A6, 2B6, 2C8/9, 2C19, 2E1 and 3A4); assay: Inhibition of human P450 isoforms; format: in vitro ADME
[23] = molecular target: al-adrenergic receptors; assay: In vitro receptor binding studies
[24] = molecular target: DA receptors; assay: In vitro receptor binding studies; settings: read-out: IC50 (affinity for DA receptors)

Structure (SMILES): O=C1c2ccccc2CN1CC1CCN(CC(O)c2ccc(F)cc2)CC1 (stereo not drawn) [BFB-520]
- affinity for σ2 receptors compared with Compound (I) [1]: lower affinity
- methamphetamine-induced hyperlocomotion [2]: inhibited
- ED50 compared with Compound (I) ([2]; methamphetamine-induced hyperlocomotion): higher than that of Compound (I)
- time to maximum concentration post-dosing [3]: ≤ 4 h
- Cmax that should not be exceeded to avoid QT prolongation ([4]; human, in vivo): ≤ 12 ng/mL
- pIC50 [5]: 6.74
- affinity for 5-HT2A receptors compared with Compound (I) [6]: lower
- metabolizing enzymes [7]: metabolized by CYP2D6 and CYP3A4
- Half-life Fed to Fasted ratio ([8]; human, in vivo): 0.8
- dose proportionality of PK ([8]; human, in vivo): less so
- concentration that prolonged the action potential duration (APD) [9]: ≥ 100 nM

Structure (SMILES): O=C(CN1CCC(CN2Cc3ccccc3C2=O)CC1)c1ccc(F)cc1 [Compound (I), 2-((1-(2-(4-Fluorophenyl)-2-oxoethyl)piperidin-4-yl)methyl)isoindolin-1-one monohydrochloride dihydrate]
- pKi ([1]; sigma2 receptor): 8.09
- methamphetamine-induced hyperlocomotion [2]: inhibited
- Cmax ([10]; male): 3160 ng/mL and 4950 ng/g
- Kp value (brain/plasma concentration ratio) [10]: 1.38 mL/g
- sleep initiation parameters (sleep onset latency, latency to persistent sleep) ([11]; patients): improved
- slow wave sleep (SWS) in the first third of the night ([11]; patients, PSG): significantly increased
- slow wave sleep (SWS) in the last third of the night ([11]; patients, PSG): decreased
- subjective sleep quality as measured by PSQI ([11]; vs placebo): improvement was greater with Compound (I) than with placebo although not statistically significant
- apomorphine-induced hyperlocomotion [12]: inhibited
- time of peak plasma radioactivity ([3]; male, po): 3 to 3.5 h
- urinary excretion rate of radioactivity [3]: about 35%
- bioavailability ([3]; po): ≥ 90%
- half-life ([3]; po): 1.68 to 2.57 h
- oral absorption rate ([3]; po): 70.0-99.9%
- Cmax ([4]; human plasma, read-out: Cmax that should not be exceeded to avoid QT prolongation): ≤ 80 ng/mL
- PCP-induced social interaction impairment [13]: significantly ameliorated
- impairment of spontaneous alternation behavior induced by MK-801 [14]: improved
- CNS function ([15]; oral 1 to 30 mg/kg): inhibited
- thresholds for electroshock-induced convulsion ([15]; oral 1 to 30 mg/kg): decreased
- time by which clinical signs disappeared post-dosing ([15]; oral 1 to 30 mg/kg): ≤ 6 h
- effects at high doses ([15]; oral, high doses (>10 mg/kg)): affected respiratory function, inhibited gastric emptying, damaged the gastrointestinal membrane, decreased urine volume, and increased urine potassium excretion
- pIC50 [5]: 6.49
- inhibitory effect on CYP2D6 [16]: weak inhibitory effect
- functional activity at sigma2 receptors [17]: antagonist
- functional activity at 5-HT2A receptors [18]: antagonist
- monoamine levels ([19]; effective dose levels in animal models of antipsychotic activity): did not affect
- dopamine turnover in the accumbens and striatum ([19]; oral administration): slightly increased
- output of DA metabolites such as DOPAC and HVA in prefrontal cortex ([19]; oral, high dose levels): increased the output
- pKi ([6]; 5-HT2A receptor): 8.12
- metabolizing enzymes [7]: mainly metabolized by enzymatic reaction other than CYP isoforms
- phencyclidine-induced hyperlocomotion [20]: inhibited
- dose proportionality of PK ([8]; MR formulation under fasted conditions): generally dose proportional
- Cmax increase, food effect ([8]; MR formulation, fed vs fasted): ~2 ×
- Half-life Fed to Fasted ratio ([8]; MR formulation, fed vs fasted): 0.5
- Tiag, Median ([8]; Period 1, 32 mg Slow Release, Fasted, plasma analyte): 0 h
- Tmax ([8]; male, human, oral, Period 1, 32 mg Slow Release, Fasted, plasma analyte, read-out: Tmax, Median): 2.25 h
- AUC(0-t) ([8]; male, human, oral, 32 mg, Period 1, 32 mg Slow Release, Fasted, plasma analyte, read-out: AUClast, Mean): 212 ng·h/mL
- AUC(0-t) ([8]; male, human, oral, 32 mg, Period 1, 32 mg Slow Release, Fasted, plasma analyte, read-out: AUClast, Median): 220 ng·h/mL
- Cmax ([8]; male, human, oral, 32 mg, Period 1, 32 mg Slow Release, Fasted, plasma analyte, read-out: Cmax, Mean): 22.5 ng/mL
- Cmax ([8]; male, human, oral, 32 mg, Period 1, 32 mg Slow Release, Fasted, plasma analyte, read-out: Cmax, Median): 23.7 ng/mL
- half-life ([8]; male, human, oral, 32 mg, Period 1, 32 mg Slow Release, Fasted, plasma analyte, read-out: t½, Mean (converted)): 6.26 h
- half-life ([8]; male, human, oral, 32 mg, Period 1, 32 mg Slow Release, Fasted, plasma analyte, read-out: t½, Median (converted)): 5.35 h
- half-life ([8]; male, human, oral, MR formulation under fasted conditions, read-out: Half-life): 3 to 8 h
- recovery of given radioactivity in carcass ([21]; male, 168 h): 0.7%
- time of peak plasma radioactivity ([21]; male, po): 0.63 to 2.75 h
- enterohepatic circulation rate [21]: about 27%
- pharmacokinetic parameters for total radioactivity, female vs male rats [21]: comparable
- urinary excretion rate of radioactivity [21]: about 35%
- bioavailability ([21]; po): 52.4 to 64.5%
- half-life ([21]; po): 1.68 to 2.06 h
- oral absorption rate ([21]; po): 90.3-94.7%
- transfer into milk ([21]; po): rapidly transferred into milk and were slowly eliminated
- inhibitory effects on human P450 isoforms (CYP1A2, 2A6, 2B6, 2C8/9, 2C19, 2E1 and 3A4) [22]: No remarkable inhibitory effects
- pKi [23]: 7.84
- pIC50 [24]: < 6.00
